Measured values from ChEMBL document CHEMBL3507680, “University of Dundee, Gates Library screen for HepG2 cell viability”.

Test: Human HepG2 cell viability assay in 384 well format
Assay type: toxicity, cell-based
Set-up: dose 125 nL, time 70.5 hour; cytotoxicity at 70.5 h: concentration not given beside the values
Conditions: HepG2 cells, read-out: Inhibition

Row | SMILES | cytotoxicity at 70.5 h [%]
1 | CC(C)c1cc(C(=O)NCC2CCCN(c3ncccn3)C2)n(C)n1 (centres undefined) | -5.82
2 | O=C1NCCCCC1NC(=O)C1(Oc2ccc(Cl)cc2)CCNCC1 (centres undefined) | -7.72
3 | Cc1ccc2nc(C(=O)N3CC(c4cccnc4)C3)cn2c1 | -6.09
4 | COCCN1C[C@H](NC(=O)CCC(F)(F)F)[C@@H](C(C)C)C1 | -2.58
5 | NC(=O)c1cn2cc(-c3ccccc3Cl)n(CC3CC3)c(=O)c2n1 | -9.1
6 | NCCc1nc(N(Cc2cncs2)C2CC2)c2ccccc2n1 | 24.1
7 | Cc1cc(C)n(CCCC(=O)N2CC[C@H]3NCCC[C@]3(CO)C2)n1 | -2.14
8 | CC(=O)Nc1ccc2nc(-c3nccn3C[C@@H]3CCCO3)ccc2c1 | -11.8
9 | COCCN(Cc1sccc1C)C(=O)COc1ccccc1O | -4.7
10 | CCn1c(Cn2cccn2)nnc1C1CCN(Cc2ccc(C)o2)CC1 | 19.3
11 | Cc1ccc(C(F)(F)F)cc1C(=O)N[C@H]1CN(CCO)C[C@@H]1C1CC1 | -3.09
12 | Cc1cc(N(C)CCCn2cccn2)nc(N)n1 | -12.7
13 | COc1ccc(F)c(CNC2CCCc3nc(N(C)C)ncc32)c1 (centres undefined) | -11.5
14 | OC1(CNCc2noc(Cc3ccccc3)n2)CNCCOC1 (centres undefined) | -4.33
15 | CCN(CC)C(=O)N1CCN(Cc2cnc(C)nc2)[C@H]2CS(=O)(=O)C[C@H]21 | -17.5
16 | CCN(Cc1nc(COC)no1)Cc1cc2ccc(F)cc2[nH]c1=O | -12.1
17 | CCC(C)Oc1ccc(CNCCNC(C)=O)cc1OC (centres undefined) | -6.94
18 | CCc1nccn1CC(=O)N1C[C@H]2CC[C@@H]1CN(c1ncccn1)C2 | -0.942
19 | CN1CC(c2ccccc2)CC12CCN(C(=O)c1cccnc1)CC2 (centres undefined) | -9.06
20 | Cc1oc(C(C)C)cc1C(=O)N1C[C@H]2CC[C@@H]1CN(c1ncccn1)C2 | -13.7
21 | COc1ccc(S(=O)(=O)N[C@H]2CN(C(C)=O)C[C@@H]2C(C)C)cc1F | -12.5
22 | CCCc1cc(C(=O)N[C@@H](CO)[C@@H](O)c2ccccc2)n(C)n1 | 0.909
23 | CCc1cn[nH]c1C1CCN(c2cc(C)c3ccc(OC)cc3n2)CC1 | 9.99
24 | CCc1nc(C)sc1CN(Cc1ccncc1)C1CCN(C)CC1 | -6.03
25 | CC1(C)CC(CN2CCC3(CCC(=O)N(CCO)C3)CC2)CCO1 (centres undefined) | -10.6
26 | Cc1ccc(C(=O)N2CCC3(CCC(=O)N(CC(C)O)C3)CC2)c(O)c1 (centres undefined) | -7.72
27 | CC(C)Cn1cncc1-c1nc2c([nH]1)CCCNC2=O | -6.28

Row | SMILES | cytotoxicity at 70.5 h [%]
28 | N[C@H]1CC[C@@H](CN2CCCn3nc(CNC(=O)C4CCC4)cc3C2)CC1 | -9.19
29 | CC(C)C(O)C1CCN(c2ccnc(C(=O)NCc3ccco3)c2)CC1 (centres undefined) | -14.1
30 | CC(=O)N1CCCC(C(=O)NCc2noc(Cc3ccccc3)n2)C1 (centres undefined) | -11.1
31 | CC(C)Cc1cc(C(=O)N2CCC(C(=O)N3CCOCC3)CC2)on1 | -7.8
32 | Cc1cccc(CNC2CC(=O)N(CCc3cccc(Cl)c3)C2)n1 (centres undefined) | -8.39
33 | COc1cnc(N2C[C@H](CO)C[C@H](CN3CCOCC3)C2)nc1 | -2.01
34 | CN(C)CCCNC(=O)C(c1cccc(F)c1)N(C)C (centres undefined) | -2.43
35 | c1ccc(CN2CCC(NCCSc3cnn[nH]3)CC2)cc1 | 2.48
36 | COCCN(Cc1ccccc1Cl)C(=O)c1c(C)cc(C)[nH]c1=O | -2.7
37 | COCc1noc(CCNc2ncnc3c2CCNCC3)n1 | -8.6
38 | COCCC1(C(=O)O)CCCN(C(=O)c2cc(C)oc2C)C1 (centres undefined) | -15.5
39 | O=C(NCc1sc2ccccc2c1Cl)c1cc2n(n1)CCNC2 | 18.3
40 | O=C(c1ccc2c(c1)OCO2)N1CCCC(Nc2ccc(F)cc2)C1 (centres undefined) | -2.98
41 | Cn1ncc2c(NCC3CCS(=O)(=O)C3)nc(C3CCCC3)nc21 (centres undefined) | -3.73
42 | Cc1n[nH]c(SCC(=O)N2C[C@H]3CC[C@@H]2CN(c2ncccn2)C3)n1 | -4.86
43 | O=C1CC(c2ncc(-c3ccc4c(c3)OCCO4)[nH]2)CN1C1CC1 (centres undefined) | -7.8
44 | OC1CCCN(Cc2cn(CC3CCN(C4CCSCC4)CC3)nn2)C1 (centres undefined) | -2.84
45 | CS(=O)(=O)N1C[C@H]2CNC[C@@]2(C(=O)NCCOc2ccccc2)C1 | -1.07
46 | Cc1nnc(NC(=O)N2CCCN(C3CCCC3)CC2)s1 | -2.92
47 | CCS(=O)(=O)N1Cc2ncn(C)c2C(COCC2CCOCC2)C1 (centres undefined) | -3.96
48 | Cn1cnc2c1C(COCC1CCOCC1)CN(C(=O)C1CC=CC1)C2 (centres undefined) | -2.11
49 | Cc1ccc(N2C[C@H](C(=O)NCC3CC3)[C@@H]3CCO[C@@H]3C2)nn1 | -9.32
50 | Cc1nc[nH]c1CN1C[C@@H]2OCCN(c3ncccn3)[C@@H]2C1 | -10.6
51 | CN(C)C(=O)CN1C(=O)C[C@@H]2[C@@H]1CCN2Cc1cccc(C#N)c1 | 6.8
52 | CN(C)C(=O)c1cnc2n1CCN(Cc1ccsc1)C2 | 2.92
53 | Cc1ccc(CN2CC[C@H]3C(=O)N(Cc4cccnc4)CCO[C@H]3C2)o1 | -8.65
54 | CN(C)[C@@H]1CCN(C(=O)c2ccsc2)[C@H]1Cc1cccnc1 | 2.91
